From ChEMBL document CHEMBL1153443, “Development of an in-capillary approach to nanoscale automated in vitro cytochromes p450 assays” (J Med Chem, 2009) come the findings set out here.

This series concerns the target CYP2D6 (Homo sapiens, UniProt P10635). Briefly: Inhibition of human recombinant CYP2D6 at 5 uM assessed as blockade of O-demethylation of dextromethorphan in to dextrophan by nanoscale automated in-capillary assay. The format is ADME. The conditions noted are these: recombinant CYP2D6, probe dextromethorphan (O-demethylation to dextrorphan).

Chain of CYP2D6 (P10635 whole entry): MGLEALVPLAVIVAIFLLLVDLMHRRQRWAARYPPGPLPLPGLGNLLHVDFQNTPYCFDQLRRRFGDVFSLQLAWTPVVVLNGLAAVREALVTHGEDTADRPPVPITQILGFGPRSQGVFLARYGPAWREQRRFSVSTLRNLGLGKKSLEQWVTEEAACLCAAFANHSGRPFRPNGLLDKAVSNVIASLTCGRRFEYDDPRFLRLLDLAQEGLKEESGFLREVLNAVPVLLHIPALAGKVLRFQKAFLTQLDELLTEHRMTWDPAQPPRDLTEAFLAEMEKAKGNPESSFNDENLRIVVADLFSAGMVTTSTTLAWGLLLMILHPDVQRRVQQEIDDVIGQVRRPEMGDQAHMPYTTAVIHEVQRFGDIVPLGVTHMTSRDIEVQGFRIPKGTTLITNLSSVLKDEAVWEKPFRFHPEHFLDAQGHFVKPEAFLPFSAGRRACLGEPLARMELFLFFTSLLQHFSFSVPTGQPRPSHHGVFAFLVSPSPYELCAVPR

With `COc1ccc(C(CN(C)C)C2(O)CCCCC2)cc1` (configuration not stated) [VENLAFAXINE], the inhibition (usually the drop in the measured response relative to a control, in per cent) at 5 µM came to 0%. The result for `CNCCC(Oc1ccc(C(F)(F)F)cc1)c1ccccc1` (configuration not stated) [FLUOXETINE] reads 20%.
